Reference: article PMC3762829 (PLoS ONE, 2013)
“And” between values parts separate entries of the source, which are not always exact repeats. Equal values may be shown once. Read-outs that look alike come from different tables or passages of the source.

Tests used:
platelets = tested on: platelets
Text: Platelet rich plasma was obtained from the supernatant resulting from the centrifugation of blood at 200 g at room temperature.

[1] = tested on: HbA1C formation (hemoglobin); assay: Hemoglobin-δ-gluconolactone (δ-Glu) assay, early stage glycation; type: biochemical, human
Protocol: The Hemoglobin-δ-gluconolactone (δ-Glu) assay was performed as per previously published procedure. All the blood samples were analyzed in triplicates. The percent inhibition of HbA1C formation by the compound was calculated by: (B-C)/(B-A)X100, where A is HbA1C concentration in the baseline control tube not treated with δ-Glu, B is the HbA1C content of the test tube treated with δ-Glu, and C is the HbA1C levels in the sample treated with both δ-Glu and the compound under study.

[2] = tested on: GK peptide cross linking in the presence of ribose; assay: N-acetyl-glycyl-lysine methyl ester (GK peptide)-ribose assay, late glycation products; type: biochemical
Protocol: GK-peptide-ribose assay was performed with slight modifications from the previously published method. […] The fluorescence of the mixture was read at 340 nm excitation wavelength and 420 nm emission wavelengths using a Shimadzu RF-5301 spectrofluorometer.

[3] = tested on: MG-mediated HSA glycation; details: 14 days
Text: The % inhibition of AGEs formation = [1 −(fluorescence of the test group/fluorescence of the control group)] × 100.

HSA glycation by DHA = type: biochemical, human; details: HSA + 20 mM DHA
Text: The method of Rahbar et al., was followed with slight modifications for the determination of percent of AGEs formed [26].

hemoglobin = tested on: hemoglobin; design: method as in PMID 14568007; details: cited from earlier work

Compound: CN(C)C(=N)N=C(N)N [MF, metformin]
- cytotoxicity (LDH leakage), in words (platelets; 200 µM): not cytotoxic
- total lactate dehydrogenase released in the incubation medium (platelets; 200 µM, incubation time 0 min): 0±0.000%
- total lactate dehydrogenase released in the incubation medium (platelets; 200 µM, incubation time 30 min): 1.23±0.232%
- total lactate dehydrogenase released in the incubation medium (platelets; 200 µM, incubation time 60 min): 2.23±0.331%
- total lactate dehydrogenase released in the incubation medium (platelets; 200 µM, incubation time 90 min): 3.56±0.237%
- total lactate dehydrogenase released in the incubation medium (platelets; 200 µM, incubation time 120 min): 4.23% and 4.23±0.352%
- total lactate dehydrogenase released in the incubation medium (platelets; 225 µM, incubation time 120 min): 4.51±0.312%
- total lactate dehydrogenase released in the incubation medium (platelets; 250 µM, incubation time 120 min): 5.63±0.563%
- total lactate dehydrogenase released in the incubation medium (platelets; 300 µM, incubation time 120 min): 6.37±0.349%
- cytotoxicity (LDH leakage), in words (platelets; above 200 µM): highly cytotoxic
- inhibition in the formation of HbA1c ([1]; 10 µM): 11.6%
- inhibition in the formation of HbA1c ([1]; 100 µM): 17.1%
- inhibition in the formation of HbA1c ([1]; 500 µM): 23.3%
- inhibition in the formation of HbA1c ([1]; 1000 µM, simultaneous incubation): 28.1%
- inhibition of the formation of fluorescent products ([1]; pre-incubation of fresh blood with 1000 µM for 24 h, then δ-gluconolactone): 30.3%
- inhibition of late glycation end products ([2]; 200 µM, 14 day period): 66%

Compound: Cc1ncc(CO)c(CN)c1O [PM, pyridoxamine]
- total lactate dehydrogenase released in the incubation medium (platelets; human, 0 min, 20 mM): 0±0.000%
- total lactate dehydrogenase released in the incubation medium (platelets; human, 30 min, 20 mM): 1.23±0.235%
- total lactate dehydrogenase released in the incubation medium (platelets; human, 60 min, 20 mM): 2.11±0.230%
- total lactate dehydrogenase released in the incubation medium (platelets; human, 90 min, 20 mM): 3.23±0.212%
- total lactate dehydrogenase released in the incubation medium (platelets; human, 120 min, 22 mM): 3.92±0.683%
- total lactate dehydrogenase released in the incubation medium (platelets; human, 120 min, 25 mM): 4.14±0.334%
- inhibition of MG-catalysed HSA glycation ([3]; human, 10 mM, pH 7.4): 54%
- inhibition of MG-catalysed HSA glycation ([3]; human, 20 mM, pH 7.4): 69%
- inhibition in the formation of HbA1c ([1]; 1 mM): 9.1%
- inhibition in the formation of HbA1c ([1]; 5 mM): 20.4%
- inhibition in the formation of HbA1c ([1]; 10 mM): 29.3%
- inhibition in the formation of HbA1c ([1]; 20 mM): 41.1%
- inhibition of the formation of fluorescent products ([1]; pre-incubation of fresh blood with 20 mM for 24 h, then δ-gluconolactone): 47%
- inhibition of the formation of fluorescent products ([1]; simultaneous incubation of whole blood, δ-gluconolactone and 10 mM (so in the source), data not shown): 41%
- inhibition of post-Amadori glycation and AGE formation (HSA glycation by DHA; 20 mM): 78.4%
- inhibition of late glycation end products ([2]; 20 mM): 79%

Compound: N=C(N)NN [AG, aminoguanidine]
- total lactate dehydrogenase released in the incubation medium (platelets; 10 mM, incubation time 0 min): 0±0.000%
- total lactate dehydrogenase released in the incubation medium (platelets; 10 mM, incubation time 30 min): 2.86±0.413%
- total lactate dehydrogenase released in the incubation medium (platelets; 10 mM, incubation time 60 min): 4.23±0.432%
- total lactate dehydrogenase released in the incubation medium (platelets; 10 mM, incubation time 90 min): 5.81±0.134%
- total lactate dehydrogenase released in the incubation medium (platelets; 10 mM, incubation time 120 min): 6.63±0.232%
- inhibition of MG-catalysed HSA glycation ([3]; 10 mM, 40 mM MG, 37°C): 49%
- inhibition in the formation of HbA1c ([1]; 10 mM): 15%
- inhibition of fluorescence associated with AGE product formation (HSA glycation by DHA; 10 mM): 70.1%
- inhibition of late glycation products ([2]; 10 mM): 60%
- effect on hemoglobin glycation (hemoglobin): no significant effect
